Assay results as given in US8906884B2, “Method of treating graft-rejection using dextran sulfate” (TX Medic AB, priority 2002, dated 2014).
Read-outs that look alike come from different tables or passages of the source.

Key:
[1] = test system: clot formation induced by API in human blood; settings: for Clot formation / clotting time versus no additives: 0.01 and 0.1 mg/ml, in words
Description: Blood was drawn from four healthy volunteers into Vacutainer™ tubes containing citrate. Whole blood (980 μl) was incubated with 2 μl of API at 37° C. in polypropylene sample cups in a ReoRox™ rheometer (Global Haemostasis International, Gothenburg, Sweden). […] Every 6 s, the cup was set into free torsional oscillation around its vertical axis, and the damping and frequency of the oscillation was registered. Clotting time was identified as the point of maximal damping.

[2] = test system: IBMIR triggered by API in fresh human blood
Description: (§1) This protocol is basically performed as previously described with some modifications. In general words, loops made of PVC (diameter 6.3 mm, length 390 mm), whose inner surface was furnished with immobilized heparin, were used. The tubing was held together with a specially designed heparinized connector. A circular loop was formed when the ends of the connector were tightly pushed into the lumen of the tubing ends. A rocking apparatus, placed in a 37° C. incubator, was used to generate blood flow inside the loops. The loops were rocked at a setting that prevented the blood from coming in contact with the connectors.
(§2) Seven 60-min islet experiments were performed, using API isolated from four different pigs. […] For each experiment, one loop containing fresh human blood and saline without API was included as a control. […] Concurrently, pre-incubation of human blood with 1 mg/ml of LMW-dextran, which was not sulfated, was tested in five experiments. In each experiment, 7 ml of fresh human blood from the same donor was added to each loop. […] Thereafter, the loops were opened, and 100 μl of saline with or without 5 μl of API (approximately 5,000 IEQ) was added to the loops and followed by another 60-min incubation on the rocking device at 37° C. Blood glucose levels were measured with a glucometer (Glucometer Elite; Bayer Diagnostics, Leverkusen, Germany) before the perfusion.
After every perfusion, the loop contents were filtered through 70 μm-diameter filters (Filcons, Cuptype; DAKO, Denmark). Both macroscopic blood clots and tissue recovered on the filters were snap-frozen in isopentane for immunohistochemical staining. The remaining filtered blood was collected in 4.1 mM EDTA (final concentration) and used for hematological analysis (platelets, lymphocytes, monocytes, and granulocytes) and assays of coagulation activation (thrombin-antithrombin [TAT], factor XIa-antithrombin complexes [FXIa-AT], and factor XIIa-antithrombin complexes [FXIIa-AT]), fibrinolysis activation (plasmin-alpha 2 antiplasmin complexes [PAP]), complement activation (C3a and sC5b-9), and C1 esterase inhibitor activation (factor XIa-C1 esterase inhibitor [FXIa-C1 INH], factor XIIa-C1 esterase inhibitor [FXIIa-C1 INH]). Samples taken at 0, 15, and 30 min were also analyzed. In 0-min samples, the blood was not added to the tubing loop but was instead transferred immediately to the EDTA-containing tubes. The blood samples were centrifuged at 4° C. at 3290×g for 20 min, and the plasma was collected and stored at −70° C. until analyzed.
Platelet counts and differential leukocyte counts were analyzed on a Coulter ACT-diff analyzer (Beckman Coulter, Fla., USA) using EDTA-treated blood. TAT and PAP were quantified using commercially available enzyme immunoassays (EIA) kits (Enzygnost TAT, Behringswerke, Marburg, Germany; Imuclone® PAP, American Diagnostica Inc., Greenwich, USA). FXIa-AT, FXIIa-AT, FXIa-C1 INH, and FXIIa-C1 INH were analyzed according to the method of Sanchez et al.. C3a was analyzed as previously described by Nilsson Ekdahl et al., and sC5b-9 was analyzed using a modification of the EIA described by Mollnes et al..

[3] = test system: porcine islets transplanted into diabetic athymic mice
Description: (§3) After being cultured for 4 days, 5 μl of API (˜5000 IEQs) from five isolations were transplanted into the liver via the portal vein of 11 male inbred diabetic athymic mice, which were anesthetized during surgery with isoflurene. […] Six (untreated) mice were injected with an equivalent volume of saline in the same manner.
(§4) Islets were sectioned and subsequently stained with horseradish peroxidase (HRP) conjugated mouse anti-human CD41a (R&D Systems, Abigdon, UK) and anti-CD11b^+ (Clone 2LPM 19c, DAKO, Carpinteria, Calif., USA). In the in vivo study, the API-containing mouse livers were retrieved 10 days after transplantation and snap-frozen in isopentane. The samples were sectioned and stained with guinea pig anti-insulin (DAKA, Carpinteria, Calif., USA) and rat anti-mouse CD11b^+ (Serotec Ltd. Scandinavia, Oslo, Norway).

[4] = test system: API graft in diabetic athymic mice; settings: implantation site liver, i.v. treatment, n = 5; duration of normoglycemia
Description: Diabetes was induced in athymic mice by intravenous (i.v.) injection of steptozotocin from Sigma Chemicals (Palo Alto, Calif., USA) according to Wennberg et al.. The steptozotocin dose was 250 mg/kg body weight for the athymic mice. An animal was considered diabetic if its blood glucose (B-glucose) level exceeded 20 mmol/l (>360 mg/dl) for 2 or more consecutive days.
as §3
Blood glucose levels were measured in blood obtained from tails of recipients using a Glucometer Elite® B-glucose measuring instrument (Bayer AB, Gothenburg, Sweden). Measurements were taken daily before 12 am and expressed as mmol/l (1 mmol/l≈18 mg/dl). Loss of graft function was considered to have occurred if B-glucose levels exceeded 11.1 mmol/l (>200 mg/dl) for 2 or more consecutive days. Post-transplant duration of normoglycemia (<200 mg/dl) was defined as the graft survival period.

[5] = test system: porcine islets perfused with human blood
Description: as §1, §2, §4

complement system = settings: FIG. 3, in words
Description: At 5, 10, 15, 30, 45, and 60 min after serum incubation at 37° C., 100 μl of serum was transferred to tubes containing 10 mM EDTA. These samples were stored at −70° C. before analysis of the complement components C3a and sC5b-9.
Filled bars represent generation of C3a and unfilled correspond to sC5b-9.

[6] = test system: Porcine aortic endothelial cells; settings: 25 mg/ml, in words; cited from earlier work
[7] = cited from earlier work
pig lungs = settings: 2 mg/ml; HAR after 30 min without; cited from earlier work
[8] = test system: STZ-induced diabetic mice; settings: intraperitoneal, intrahepatic islets, in words; cited from earlier work
[9] = Table 4 comparison, 60 min API perfusion, 1 mg/ml, n = 5
[10] = after 60 min perfusion, API with 0.01 mg/ml, n = 7
[11] = after 60 min perfusion, API with 0.1 mg/ml, n = 7
[12] = after 60 min perfusion, API with 1 mg/ml, n = 7
[13] = continuous injection about 45 mg/hour, in words

Substance: high molecular weight dextran [HMW-D, reference compound]
- Clot formation / clotting time versus no additives [1]: extended the clotting time to only a minor degree
- Clotting time ([1]; experiment 1, 0.01 mg/ml): 19.8 min
- Clotting time ([1]; experiment 1, 0.1 mg/ml): 14.2 min
- Clotting time ([1]; experiment 2, 0.01 mg/ml): 13.8 min
- Clotting time ([1]; experiment 2, 0.1 mg/ml): 33.2 min

Substance: Low molecular weight dextran [LMW-D, reference compound]
- Effect on IBMIR ([2]; 1 mg/ml, 60 min API perfusion, in words): only a marginal effect
- C3a [2, 9]: 1490.3 ± 406.4 ng/mL
- FXIa-AT [2, 9]: 1.09 ± 0.08 µmol/L
- Granulocytes (×10^9/l) [2, 9]: 1.90 ± 0.43 ×10^9/l
- Lymphocytes (×10^9/l) [2, 9]: 2.14 ± 0.32 ×10^9/l
- Monocytes (×10^9/l) [2, 9]: 0.29 ± 0.08 ×10^9/l
- Platelets (×10^9/l) [2, 9]: 44.9 ± 18.7 ×10^9/l
- TAT [2, 9]: 4429.2 ± 2002.5 µg/mL
- sC5b-9 (AU/ml) [2, 9]: 157.3 ± 19.1 AU/ml
- Clot formation / clotting time versus no additives [1]: extended the clotting time to only a minor degree
- Clotting time ([1]; experiment 1, 0.01 mg/ml): 19.2 min
- Clotting time ([1]; experiment 1, 0.1 mg/ml): 25.2 min
- Clotting time ([1]; experiment 2, 0.01 mg/ml): 11.3 min
- Clotting time ([1]; experiment 2, 0.1 mg/ml): 25.8 min

Substance: Low molecular weight dextran sulfate [LMW-DS]
- Frequency of clot formation and intensity of leukocyte infiltration versus untreated recipients ([3]; p=0.034, in words): significantly lower
- Islets entrapped in clots ([3]; treated mice, FIG. 9, in words): only a few islets
- Infiltrating CD11b+ (MAC-1+) cells ([3]; treated mice, FIG. 11, in words): markedly fewer
- Mean graft survival [4]: 8.8 ± 1.9 days
- Generation of C3a ([2]; 0.01 mg/ml, FIG. 1, in words): significantly reduces
- Coagulation activation products TAT, FXIa-AT and FXIIa-AT ([2]; 0.01 mg/ml, in words): suppressed
- PAP ([2]; 0.01 mg/ml, in words): significantly suppressed
- Generation of C3a and membrane attack complex sC5b-9 ([2]; 0.1 mg/ml and 1 mg/ml, FIGS. 1 and 2, in words): totally inhibits
- C3a [2, 9]: 171.5 ± 72.4 ng/mL
- FXIa-AT [2, 9]: 1.56 ± 0.82 µmol/L
- Granulocytes (×10^9/l) [2, 9]: 3.23 ± 0.21 ×10^9/l
- Lymphocytes (×10^9/l) [2, 9]: 1.94 ± 0.12 ×10^9/l
- Monocytes (×10^9/l) [2, 9]: 0.38 ± 0.10 ×10^9/l
- Platelets (×10^9/l) [2, 9]: 181.1 ± 16.3 ×10^9/l
- TAT [2, 9]: 12.8 ± 4.9 µg/mL
- sC5b-9 (AU/ml) [2, 9]: 41.6 ± 11.5 AU/ml
- C3a [2, 10]: 630.6 ± 103.4 ng/mL
- FXIIa-AT [2, 10]: 0.08 ± 0.02 µmol/L
- FXIIa-C1 inh [2, 10]: 0.10 ± 0.03 µmol/mL
- FXIa-AT [2, 10]: 0.13 ± 0.01 µmol/L
- Granulocytes (×10^9/l) [2, 10]: 2.20 ± 0.40 ×10^9/l
- Lymphocytes (×10^9/l) [2, 10]: 1.90 ± 0.11 ×10^9/l
- Monocytes (×10^9/l) [2, 10]: 0.48 ± 0.10 ×10^9/l
- PAP [2, 10]: 398.2 ± 60.7 ng/mL
- Platelets (×10^9/l) [2, 10]: 108.2 ± 12.9 ×10^9/l
- TAT [2, 10]: 645.3 ± 177.4 µg/mL
- sC5b-9 (AU/ml) [2, 10]: 151.4 ± 27.9 AU/ml
- C3a [2, 11]: 191.7 ± 36.6 ng/mL
- FXIa-AT [2, 11]: 0.08 ± 0.01 µmol/L
- Granulocytes (×10^9/l) [2, 11]: 2.80 ± 0.50 ×10^9/l
- Lymphocytes (×10^9/l) [2, 11]: 1.91 ± 0.12 ×10^9/l
- Monocytes (×10^9/l) [2, 11]: 0.40 ± 0.07 ×10^9/l
- Platelets (×10^9/l) [2, 11]: 146.1 ± 8.1 ×10^9/l
- TAT [2, 11]: 61.0 ± 8.6 µg/mL
- sC5b-9 (AU/ml) [2, 11]: 61.9 ± 6.5 AU/ml
- C3a [2, 12]: 215.6 ± 52.2 ng/mL
- FXIa-AT [2, 12]: 1.17 ± 0.41 µmol/L
- Granulocytes (×10^9/l) [2, 12]: 2.92 ± 0.37 ×10^9/l
- Lymphocytes (×10^9/l) [2, 12]: 1.89 ± 0.10 ×10^9/l
- Monocytes (×10^9/l) [2, 12]: 0.31 ± 0.05 ×10^9/l
- Platelets (×10^9/l) [2, 12]: 162.3 ± 8.9 ×10^9/l
- TAT [2, 12]: 15.0 ± 5.6 µg/mL
- sC5b-9 (AU/ml) [2, 12]: 53.9 ± 7.1 AU/ml
- Coagulation and complement activation ([2]; dose-dependent, in words): reduced
- Blood cell consumption ([2]; in words): inhibited
- Macroscopic clotting ([2]; in words): prevented
- FXIIa-C1 INH ([2]; presence or absence of LMW-DS, in words): did not change
- Number of infiltrating CD11b+ cells ([5]; 1 mg/ml, 60 min, FIG. 5, in words): decreased considerably
- Clot formation around islets ([5]; 1 mg/ml, 60 min, in words): complete inhibition
- Layer of platelets adhering to the islets ([5]; FIG. 7, in words): much thinner layer
- Clot formation / clotting time versus no additives [1]: totally abrogated
- Clotting time ([1]; experiment 1, 0.01 mg/ml): >60 min
- Clotting time ([1]; experiment 1, 0.1 mg/ml): >60 min
- Clotting time ([1]; experiment 2, 0.01 mg/ml): >60 min
- Clotting time ([1]; experiment 2, 0.1 mg/ml): >60 min
- Clotting time ([1]; experiment 3, 0.01 mg/ml): >60 min
- Clotting time ([1]; experiment 3, 0.1 mg/ml): >60 min
- Clotting time ([1]; experiment 4, 0.01 mg/ml): >60 min
- Clotting time ([1]; experiment 4, 0.1 mg/ml): >60 min
- Generation of C3a and sC5b-9 in human serum (complement system; 0.01 mg/ml): increased generation
- Generation of C3a and sC5b-9 in human serum (complement system; 1 mg/ml): inhibitory effect

Substance: High molecular weight dextran sulfate [HMW-DS]
- Clot formation / clotting time versus no additives [1]: inhibited clot formation only at 0.1 mg/ml
- Clotting time ([1]; experiment 1, 0.01 mg/ml): 15.8 min
- Clotting time ([1]; experiment 1, 0.1 mg/ml): >60 min
- Clotting time ([1]; experiment 2, 0.01 mg/ml): 36.9 min
- Clotting time ([1]; experiment 2, 0.1 mg/ml): >60 min
- Clotting time ([1]; experiment 3, 0.01 mg/ml): 21.0 min
- Clotting time ([1]; experiment 3, 0.1 mg/ml): >60 min
- Clotting time ([1]; experiment 4, 0.01 mg/ml): 38.3 min
- Clotting time ([1]; experiment 4, 0.1 mg/ml): >60 min

Substance: CMDB25 dextran sulfate
- Complement activation and cytolytic complex deposition on the cells [6]: inhibited

Substance: Native dextran
- Complement activation and cytolytic complex deposition on the cells [6]: no such an effect

Substance: dextran sulfate [dextran sulfate (MW 8 000 Da)]
- Blood concentration ([7]; continuous injection about 45 mg/hour for 2-3 weeks): approximately 0.01 mg/ml
- Alopecia [7, 13]: reported in about half of the patients
- Thrombocytopenia [7, 13]: observed after 3 days treatment

Substance: dextran sulfate
- Lung survival (pig lungs): about 200 min
- Effect of dextran sulfate alone on hyperglycemia [8]: some beneficial effect in a few mice
